{
  "source": "paper PMC11562385",
  "about": "(RSC Chemical Biology, 2024)",
  "key": {"[1]": {"target": "T1, PD1:PDL1 interaction (Homo sapiens, UniProt Q15116)", "T1 construct": "purchased BPS Bioscience 72005", "T1 sequence (Q15116 25-167 limits assumed)": "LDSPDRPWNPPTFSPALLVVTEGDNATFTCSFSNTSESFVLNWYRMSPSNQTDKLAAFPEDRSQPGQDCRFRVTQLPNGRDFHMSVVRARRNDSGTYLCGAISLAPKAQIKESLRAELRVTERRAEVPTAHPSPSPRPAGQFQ", "assay": "PD1/PDL1 immunoblocking ELISA (BPS Bioscience kit cat # 72005)", "type": "binding"}, "[2]": {"test_system": "e-PBMCs", "assay": "Ex vivo cytokine secretion assay, exhausted PBMCs from a melanoma patient", "type": "cell-based, human", "settings": "e-PBMC, 6 h, LEGENDplex", "experimental": "Then, an ex vivo immune cell culture system using h-PBMCs and exhausted PBMCs from a melanoma patient (e-PBMCs) was used to determine the efficacy of selected ADAPTin peptides on T-effector cells (Fig. 6).[91,92] T-cell exhaustion typically leads to a reduction in cytokine release, cytotoxic activity, as well as slower T-cell proliferation. […] Cytokines concentrations measured at 72 h post-treatment were in most cases over the detection limit range further indicating the effectiveness of our compounds over time.\nNon-covalent ADAPTin2c/2p were used as negative control. (A) Levels of inflammatory cytokines measured by flow-cytometry (FACS) after 6 h incubation with electrophilic ADAPTins. Error bars indicate the mean ± SD, (n = 3). (B) Rescue of exhausted PBMCs from a melanoma patient. Levels of inflammatory cytokines and granule-associated proteins released (6 h) measured by FACS (healthy and untreated exhausted PBMCs: h-/e-PBMCs used as positive and negative controls respectively). Error bars indicate the avg ± SD, (n = 2).\nEx Vivo Cytokine Secretion Assay.\nNormal PBMCs (from healthy donor) and exhausted PBMCs isolated from the blood sample of a melanoma patient were activated for 48 h before using anti-CD2/28 monoclonal antibodies with IL-2 (2 ng/mL) as mentioned above. After 48 h, PBMCs were washed and incubated with a series of ADAPTins for 6 h. After treatment, media supernatant was collected for cytokine release measurements using the LEGENDplex™ human CD8/NK (13-plex) panel (BioLegend, cat no. 740267). Briefly, samples were mixed with assay buffer and human (13-plex) mixed-beads and plated on the 96-well filter plate. Samples were incubated for 2 h at room temperature, washed, and resuspended beads with detection antibodies according to manufacturer's protocol. Samples were transferred to a 96-well plate to read on a flow cytometer. The flow cytometer and data acquisition software setting were used according to the manufacturer's instructions. Flow analysis was obtained using a CytoFLEX-S flow cytometer equipped with 3 lasers (488 nm blue, 405 nm violet, and 638 nm from Beckman).\nTable S9. Raw data of cytokine secretion assay (n=2).\nCytokine assay IL-2 TNF-α IFN-γ Perforin […]"}, "[3]": {"target": "T1, PD1:PDL1 interaction", "assay": "Time-course competitive inhibition of PD1:PDL1 under saturating PDL1 (1:12)", "type": "binding", "settings": "inhibitor preincubated, 3 μM; PD1:PDL1 1:12; two hours; n = 4", "description": "Time-course experiments were repeated by preincubating the non-covalent inhibitor 2c in one case, or the covalent ADAPTins2ca and 2cb at the same concentration."}, "[4]": {"test_system": "N-deglycosylated PD1", "assay": "SDS-PAGE analysis of covalent conjugation to N-deglycosylated PD1", "type": "biochemical", "settings": "N-deglycosylated PD1, 12 h, 37 °C, pH 6.5, peptide/protein 4:1 to 16:1"}},
  "note": "“Also recorded” adds a separate entry of the source. Peptide text beside a SMILES is read from it.",
  "data": [
    {"smiles": "CSCC[C@H](NC(=O)[C@H](CC(=O)O)NC(=O)[C@H](Cc1ccccc1)NC(=O)[C@H](CCCNC(=N)N)NC(=O)[C@H](Cc1ccc(O)cc1)NC(=O)[C@H](CC(=O)O)NC(=O)[C@H](CCCNC(=N)N)NC(=O)[C@H](CCCNC(=N)N)NC(=O)[C@H](C)NC(=O)[C@@H](NC(=O)[C@H](Cc1c[nH]c2ccccc12)NC(=O)[C@@H](N)CCCNC(=N)N)C(C)C)C(=O)NCC(=O)N[C@@H](Cc1ccccc1)C(=O)N[C@@H](CC(=O)O)C(=O)N[C@@H](Cc1ccc(O)cc1)C(=O)N[C@@H](Cc1c[nH]c2ccccc12)C(=O)N[C@H](C(=O)N[C@@H](Cc1c[nH]c2ccccc12)C(=O)N[C@@H](CCC(=O)O)C(=O)O)C(C)C", "note": "[2c] (H-RWVARRDYRFDMGFDYWVWE-OH)", "values": [
      {"measurement": "EC50", "setting": "[1]; ELISA, mean of three independent experiments, read-out: EC50 Value", "value": 249, "unit": "nM"},
      {"measurement": "LE (ligand efficiency)", "setting": "[1]; LE = -RTln(EC50)/HA, HA = non-hydrogen atoms omitting the strap (RWV•••VWE)", "value": 0.07},
      {"measurement": "IFN-γ", "setting": "[2]; replicate 1", "value": 4131.52, "unit": "pg/mL"},
      {"measurement": "IL-2", "setting": "[2]; replicate 1", "value": 0.44, "unit": "pg/mL"},
      {"measurement": "Perforin", "setting": "[2]; replicate 1", "value": 217.39, "unit": "pg/mL"},
      {"measurement": "TNF-α", "setting": "[2]; replicate 1", "value": 483.47, "unit": "pg/mL"},
      {"measurement": "IFN-γ", "setting": "[2]; replicate 2", "value": 7535.05, "unit": "pg/mL"},
      {"measurement": "IL-2", "setting": "[2]; replicate 2", "value": 266.63, "unit": "pg/mL"},
      {"measurement": "Perforin", "setting": "[2]; replicate 2", "value": 381.31, "unit": "pg/mL"},
      {"measurement": "TNF-α", "setting": "[2]; replicate 2", "value": 1150.47, "unit": "pg/mL"},
      {"measurement": "outcome of time-course competition with excess PDL1", "setting": "[3]", "value": "fully displaced by PDL1; also recorded: easily displaced"},
      {"measurement": "covalent conjugation to PD1 on SDS-PAGE (in words)", "setting": "[4]", "value": "No conjugation observed"}
    ]}
  ]
}
